Tests used:
Spodoptera litura [1] = test: Antifeedant activity against Spodoptera litura third instar larvae by choice leaf disk assay; assay type: functional; design: unit not given here
Spodoptera litura [2] = test: Antifeedant activity against Spodoptera litura third instar larvae assessed as feeding index at 1000 ppm by choice leaf disk assay; assay type: functional

C/C=C(\C)C(=O)O[C@H]1C[C@@H](OC(C)=O)[C@@]2(C(=O)OC)CO[C@H]3[C@@H](O)[C@@](C)([C@]45O[C@@]4(C)[C@@H]4C[C@H]5O[C@@H]5OC=C[C@@]54O)[C@H]4[C@]1(CO[C@]4(O)C(=O)OC)[C@@H]32 [AZADIRACHTIN A]
logEC50 (Spodoptera litura [1]): 0.25

CC(C)[C@@]1(O)C[C@@]2(O)[C@@]3(C)C[C@]4(O)O[C@@]5([C@H](O)[C@@H](C)CC[C@]35O)[C@@]2(O)[C@@]41C [CINNZEYLANOL]
logEC50 (Spodoptera litura [1]): 1.93

CC(C)[C@@H]1C[C@@H]2[C@@]3(O)[C@@H]4O[C@@](O)(C[C@]2(C)[C@]2(O)CC[C@H](C)[C@H]42)[C@]13C [INDICOL]
logEC50 (Spodoptera litura [1]): >3 | Activity (Spodoptera litura [2]): 49.39

CC(C)[C@@]1(O)C[C@@]2(O)[C@]3(C)C[C@]4(O)O[C@H]([C@@]5(O)[C@@H](C)CC[C@]53O)[C@@]2(O)[C@]41C [PERSEANOL]
logEC50 (Spodoptera litura [1]): 2.23 | Activity (Spodoptera litura [2]): 11.43

CC(C)[C@@]1(O)[C@@H](OC(=O)c2cc[nH]c2)[C@@]2(O)[C@]3(C)C[C@@]4(O)O[C@@]5([C@H](O)[C@@H](C)CC[C@]35O)[C@@]2(O)[C@@]41C [RYANODINE]
logEC50 (Spodoptera litura [1]): 1.15

CC(C)[C@@]1(O)[C@@H](O)[C@@]2(O)[C@@]3(C)C[C@]4(O)O[C@@]5([C@H](O)[C@@H](C)CC[C@]35O)[C@@]2(O)[C@]14C [RYANODOL]
logEC50 (Spodoptera litura [1]): 2.18

CC(C)[C@@]1(O)C[C@@]2(O)[C@]3(C)C[C@]4(O)O[C@H]([C@H]5[C@@H](C)CC[C@]53O)[C@@]2(O)[C@]41C [VIGNATICOL]
logEC50 (Spodoptera litura [1]): 1.97 | Activity (Spodoptera litura [2]): 12.57

Source: ChEMBL document CHEMBL1158331, “Insect Antifeedant Isoryanodane Diterpenes from Persea indica” (1997)
